From PMC9977398, “Next-generation membrane-active glycopeptide antibiotics that also inhibit bacterial cell division” (Chemical Science, 2023)
In brackets after ≈: the same amount, converted by molar mass. Where two headings read alike, the source gives them in different places.

Experiments:
VRE (VanA phenotype) = tested on: VRE (VanA phenotype); design: method as in PMID 27663982, PMID 24846441, PMID 14972384; conditions: cited from earlier work
[1] = tested on: MRSA, methicillin-resistant S. aureus (ATCC 33591); assay: MIC determination, micro-dilution broth; assay type: cell-based; conditions: Staphylococcus aureus; MRSA ATCC 33591; read-out: Minimum inhibitory concentration, MRSA
Description: (§1) The increase in the carbon content of substituted moieties from six (1) to seven (2 and 3) to ten (5) to twelve (4), increased activity. […]
(§2) Test compound was assayed in a micro -dilution broth format as per the CLSI guideline. The bacterial freeze dried stock samples were stored at -80 °C. About 5 μL of these stocks were added to 3 mL of the respective broth and the culture was grown for 6 h at 37°C with prior to the experiments. This 6 h grown culture was diluted to give effective cell concentration of 10 5 CFU/mL which was then used for determining MIC. Compounds were serially diluted 2 -fold, in sterile millipore water and 50 μL of these serial dilutions were added to the wells of 96 well plate followed by the addition of about 150 μL of bacterial solution. The plates were then incubated for 18-24 h at 37 °C. The O.D. value at 600 nm was recorded using TECAN (Infinite series, M200 pro) Plate Reade r. Each concentration had triplicate values and the whole experiment was done at least twice and the MIC value was determined by taking the average of triplicate O. D. values for each concentration and plotting it against concentration. The data was then subjected to sigmoidal fitting. From the curve the MIC value was determined, as the point where the O. D. was similar to that of control having no bacteria.

AB R674 (A. baumannii) = assay: MIC determination, micro-dilution broth; assay type: cell-based; conditions: Acinetobacter baumannii; read-out: Minimum inhibitory concentration, AB R674
Description: as §1, §2

[2] = tested on: PA R590 (MDR strain of P. aeruginosa); assay: MIC determination, micro-dilution broth; assay type: cell-based; conditions: Pseudomonas aeruginosa; read-out: Minimum inhibitory concentration, PA R590
Description: as §1, §2

[3] = tested on: VRE 51559 (vancomycin-resistant E. faecium, VanA phenotype, ATCC 51559); assay: MIC determination, micro-dilution broth; assay type: cell-based; conditions: Enterococcus; read-out: Minimum inhibitory concentration, VRE 51559
Description: as §1, §2

[4] = tested on: VRSA 1 (vancomycin-resistant S. aureus); assay: MIC determination, micro-dilution broth; assay type: cell-based; conditions: Staphylococcus aureus, read-out: Minimum inhibitory concentration, VRSA 1
Description: as §1, §2

[5] = tested on: VRSA 4 (vancomycin-resistant S. aureus); assay: MIC determination, micro-dilution broth; assay type: cell-based; conditions: Staphylococcus aureus, read-out: Minimum inhibitory concentration, VRSA 4
Description: as §1, §2

[6] = tested on: AB 1425 (A. baumannii MTCC 1425); assay: MIC determination, micro-dilution broth; assay type: cell-based; conditions: Acinetobacter baumannii, MTCC1425; read-out: Minimum inhibitory concentration, AB 1425
Description: as §1, §2

[7] = tested on: VRSA 12 (vancomycin-resistant S. aureus); assay: MIC determination, micro-dilution broth; assay type: cell-based; conditions: Staphylococcus aureus, read-out: Minimum inhibitory concentration, VRSA 12
Description: as §1, §2

[8] = tested on: VRE 51575 (vancomycin-resistant E. faecalis, VanB phenotype, ATCC 51575); assay: MIC determination, micro-dilution broth; assay type: cell-based; conditions: Enterococcus; read-out: Minimum inhibitory concentration, VRE 51575
Description: as §1, §2

human erythrocytes = assay: Haemolysis assay; assay type: cell-based
Description: To select the lead compounds, the toxicity of 1–10 was tested against human erythrocytes as their hemolytic activity (HC50). The HC50 is determined as the concentration at which 50% of the compound treated cells are lysed. […] The HC50 for compounds 6–8 was also greater than 500 μM. […] Based on the in vitro activity and hemolysis studies, VanQbiph (4) from the aryl-substituted compounds and VanQAmC10 (8) from the alkyl-chain substituted compounds were selected for further investigations. […] VanQAmC10 (8) was additionally non-toxic to RAW 264.7 cells up to 40 μM and was therefore taken forward in vivo investigation.[18]
50 μL of serially diluted compound was added into 96 well microtiter plates. Freshly drawn, heparanized human blood was centrifuged down to obtain the erythrocytes and re-suspended to 5 vol % in PBS (pH 7.4). 150 μL of the erythrocyte suspension was added to the serially diluted compounds (from 500 µM to 2 µM). One set without compound and other with 50 μL of 1 vol % solution of Triton X-100 were kept as controls. The plates were incubated at 37 °C for 1 h followed by centrifugation at 3,500 rpm for 5 min. 100 μL of the supernatant from each well were transferred into fresh microtiter plates, and A540 was measured.
% haemolysis = (A - A0)/(Atotal -A0) × 100, where A is the absorbance of the test well, A 0 the absorbance of the negative controls (without compound), and A total the absorbance of 100 % hemolysis wells (with Triton X -100), all at 540 nm. […]

Row | SMILES | MIC against VRE (VanA phenotype) (VRE (VanA phenotype)) [µM] | MIC [1] [µM] | MIC (AB R674 (A. baumannii)) [µM] | MIC [2] [µM] | MIC [3] [µM] | MIC [4] [µM] | MIC [5] [µM] | MIC [6] [µM] | MIC [7] [µM] | MIC [8] [µM] | HC50 (human erythrocytes; human, 1 h, pH 7.4) [µM] | HC50 (human erythrocytes)
1 | CN[C@H](CC(C)C)C(=O)N[C@H]1C(=O)N[C@@H](CC(N)=O)C(=O)N[C@H]2C(=O)N[C@H]3C(=O)N[C@H](C(=O)N[C@H](C(=O)O)c4cc(O)cc(O)c4-c4cc3ccc4O)[C@H](O[C@H]3C[C@](C)(N)[C@@H](O)[C@H](C)O3)c3ccc(c(Cl)c3)Oc3cc2cc(c3O[C@@H]2O[C@H](CO)[C@@H](O)[C@H](O)[C@H]2O[C@H]2C[C@](C)(NCc3ccc(-c4ccc(Cl)cc4)cc3)[C@@H](O)[C@H](C)O2)Oc2ccc(cc2Cl)[C@H]1O [oritavancin] | 0.14 (≈ 0.251 µg/mL) | – | – | – | – | – | – | – | – | – | – | –
2 | CNC(CC(C)C)C(=O)NC1C(=O)NC(CC(N)=O)C(=O)NC2C(=O)NC3C(=O)NC(C(=O)NC(C(=O)NCCC[N+](C)(C)Cc4ccccc4)c4cc(O)cc(O)c4-c4cc3ccc4O)C(O)c3ccc(c(Cl)c3)Oc3cc2cc(c3OC2OC(CO)C(O)C(O)C2OC2CC(C)(N)C(O)C(C)O2)Oc2ccc(cc2Cl)C1O (stereo not drawn) [VanQph (1)] | – | 1 | 25.5 | > 30 | > 30 | > 30 | > 30 | > 30 | > 30 | > 30 | >500 | –
3 | CN[C@H]1C(=O)N[C@@H]2Cc3ccc(cc3)Oc3cc4cc(c3O[C@@H]3O[C@H](C(=O)O)[C@@H](O)[C@H](O)[C@H]3NC(=O)CCCCCCCCC(C)C)Oc3ccc(cc3Cl)[C@@H](O)[C@@H]3NC(=O)[C@H](NC(=O)[C@@H]4NC(=O)[C@@H](NC2=O)c2cc(cc(O)c2Cl)Oc2cc1ccc2O)c1ccc(O)c(c1)-c1c(O[C@H]2O[C@H](CO)[C@@H](O)[C@H](O)[C@@H]2O)cc(O)cc1[C@@H](C(=O)NCCCN(C)C)NC3=O [dalbavancin] | 18 (≈ 32.7 µg/mL) | – | – | – | – | – | – | – | – | – | – | –
4 | CNC(CC(C)C)C(=O)NC1C(=O)NC(CC(N)=O)C(=O)NC2C(=O)NC3C(=O)NC(C(=O)NC(C(=O)NCCC[N+](C)(C)Cc4ccc(C)cc4)c4cc(O)cc(O)c4-c4cc3ccc4O)C(O)c3ccc(c(Cl)c3)Oc3cc2cc(c3OC2OC(CO)C(O)C(O)C2OC2CC(C)(N)C(O)C(C)O2)Oc2ccc(cc2Cl)C1O (stereo not drawn) [VanQtol (2)] | – | 1 | 25.3 | > 30 | > 30 | > 30 | 16 | > 30 | > 30 | > 30 | >500 | –
5 | CCCCCCCCCCCCNC(=O)C[N+](C)(C)CCCNC(=O)C1NC(=O)C2NC(=O)C(NC(=O)C3NC(=O)C(CC(N)=O)NC(=O)C(NC(=O)C(CC(C)C)NC)C(O)c4ccc(c(Cl)c4)Oc4cc3cc(c4OC3OC(CO)C(O)C(O)C3OC3CC(C)(N)C(O)C(C)O3)Oc3ccc(cc3Cl)C2O)c2ccc(O)c(c2)-c2c(O)cc(O)cc21 (stereo not drawn) [VanQAmC12 (9)] | – | 3.12 | 6.3 | 6.3 | 1.5 | 1.5 | 0.7 | 6.3 | 3 | 3.1 | 350 | caused hemolysis
6 | CCCCCCNC(=O)C[N+](C)(C)CCCNC(=O)C1NC(=O)C2NC(=O)C(NC(=O)C3NC(=O)C(CC(N)=O)NC(=O)C(NC(=O)C(CC(C)C)NC)C(O)c4ccc(c(Cl)c4)Oc4cc3cc(c4OC3OC(CO)C(O)C(O)C3OC3CC(C)(N)C(O)C(C)O3)Oc3ccc(cc3Cl)C2O)c2ccc(O)c(c2)-c2c(O)cc(O)cc21 (stereo not drawn) [VanQAmC6 (6)] | – | 0.8 | 12.5 | 12.5 | 25 | > 30 | 6.3 | 25 | > 30 | > 30 | >500 | –
7 | CCCCCCCCNC(=O)C[N+](C)(C)CCCNC(=O)C1NC(=O)C2NC(=O)C(NC(=O)C3NC(=O)C(CC(N)=O)NC(=O)C(NC(=O)C(CC(C)C)NC)C(O)c4ccc(c(Cl)c4)Oc4cc3cc(c4OC3OC(CO)C(O)C(O)C3OC3CC(C)(N)C(O)C(C)O3)Oc3ccc(cc3Cl)C2O)c2ccc(O)c(c2)-c2c(O)cc(O)cc21 (stereo not drawn) [VanQAmC8 (7)] | – | 0.8 | 12.5 | 6.3 | 12.5 | 3.1 | 3.1 | 12.5 | > 30 | 25 | >500 | –
8 | CNC(CC(C)C)C(=O)NC1C(=O)NC(CC(N)=O)C(=O)NC2C(=O)NC3C(=O)NC(C(=O)NC(C(=O)NCCC[N+](C)(C)Cc4cccc5ccccc45)c4cc(O)cc(O)c4-c4cc3ccc4O)C(O)c3ccc(c(Cl)c3)Oc3cc2cc(c3OC2OC(CO)C(O)C(O)C2OC2CC(C)(N)C(O)C(C)O2)Oc2ccc(cc2Cl)C1O (stereo not drawn) [VanQnaph (5)] | – | 1 | 24.8 | > 30 | 25 | > 30 | 3.9 | > 30 | > 30 | 25 | >500 | –
9 | CNC(CC(C)C)C(=O)NC1C(=O)NC(CC(N)=O)C(=O)NC2C(=O)NC3C(=O)NC(C(=O)NC(C(=O)NCCC[N+](C)(C)Cc4ccc(C(F)(F)F)cc4)c4cc(O)cc(O)c4-c4cc3ccc4O)C(O)c3ccc(c(Cl)c3)Oc3cc2cc(c3OC2OC(CO)C(O)C(O)C2OC2CC(C)(N)C(O)C(C)O2)Oc2ccc(cc2Cl)C1O (stereo not drawn) [VanQphCF3 (3)] | – | 1 | 24.6 | 24.6 | > 30 | > 30 | 15.8 | > 30 | > 30 | > 30 | >500 | –
10 | CCCCCCCCCCCCCCNC(=O)C[N+](C)(C)CCCNC(=O)C1NC(=O)C2NC(=O)C(NC(=O)C3NC(=O)C(CC(N)=O)NC(=O)C(NC(=O)C(CC(C)C)NC)C(O)c4ccc(c(Cl)c4)Oc4cc3cc(c4OC3OC(CO)C(O)C(O)C3OC3CC(C)(N)C(O)C(C)O3)Oc3ccc(cc3Cl)C2O)c2ccc(O)c(c2)-c2c(O)cc(O)cc21 (stereo not drawn) [VanQAmC14 (10)] | – | 6.25 | 12.5 | 6.3 | 1.5 | 3 | 1.5 | 6.3 | 3 | 3.1 | 150 | caused hemolysis
